The text below walks through data of US4647457A, “Penicillanic acid derivatives” (Hoffmann-La Roche Inc., priority 1983, dated 1987).

Where two headings read alike, the source gives them in different places.

Test [1] deals with T1, β-lactamase from E. coli RTEM (Escherichia coli, UniProt P62593).
T1 construct: there is obtained a clear crude extract which can be used as the enzyme source; endogenous in cells; host or cells: E. coli RTEM, sonicated cells, clear crude extract
The test can be described thus: β-lactamase inhibition, nitrocefin cleavage, isolated enzyme from E. coli RTEM. Type of test: biochemical. The note with it: 15 min pre-incubation, nitrocefin substrate, 37° C., pH 7.0. The protocol: (§1) Various β-lactamases can be isolated from penicillin-resistant or cephalosphorin-resistant strains of bacteria such as Klebsiella pneumoniae NCTC 418, Proteus vulgaris 1028 and E. coli RTEM. For this purpose, the corresponding strains are cultivated in Tryptic Soy Broth (Difco) and harvested by centrifugation in the late logarithmic growth phase (when required 50-100 mg/l of ampicillin are added to the medium towards the end of the log-phase in order to induce the β-lactamase). The thus-obtained bacteria mass is treated with 10 mM of phosphate buffer (pH 7.0); the cells are broken open with ultrasound (Biosonic III, Bronwill; 3-5 min. impulse) while cooling. The mixture is centrifuged (20,000 r/min.) for 20-30 minutes and there is obtained a clear crude extract which can be used as the enzyme source (β-lactamase source) and which can be frozen at -20° C. for several months without loss of activity.
(§2) The determination of the activity of the isolated β-lactamases can be carried out according to the method of O'Callaghan, C. H. et al. [Antimicr. Ag. Chemother. 1, 283-288 (1972)] with the chromogenic cephalosporin nitrocefin (Glaxo). The required experimental batch contains per ml of water: 50 mM of phosphate buffer (pH 7.0), 0.1 mM of nitrocefin and sufficient enzyme (β-lactamase) in order to attain a ΔA/min. of about 0.1. The cleavage of the substrate, which is associated with a colour change, is carried out at 37° C. and is followed quantitatively at 482 nm with a spectral photometer.
(§3) The above-described cleavage of the chromogenic substrate by β-lactamases (experiment B) can be inhibited by adding compounds of formula I (inhibitors). Since it has been shown that the inhibitors irreversibly inactivate the β-lactamase in a time-dependent reaction, the reaction (cleavage of the substrate) is started by adding the substrate, in each case after a pre-incubation period of β-lactamase with inhibitor of 15 minutes. The determination of the β-lactamase-inhibiting activity of compounds of formula I in which R^1 signifies a group readily cleavable by hydrolysis is carried out in each case in the presence or absence of an esterase. As a measurement for the affinity of the respective tested inhibitor to the β-lactamase, which represents a measurement of the strength of the inhibitor, there serves that concentration which inhibits to 50% (IC 50 in μM/l) the cleavage of the substrate (nitrocefin) carried out under the above experimental conditions (experiment B) in the absence of an inhibitor. 4 to 6 experiments with differing concentrations of inhibitor were carried out in order to determine the IC 50. The determination of the IC 50 was carried out graphically.

The target of test [2] is β-lactamase from Proteus vulgaris 1028. The test is described as follows: β-lactamase inhibition, nitrocefin cleavage, isolated enzyme from P. vulgaris 1028. The note with it: 15 min pre-incubation, nitrocefin substrate, 37° C., pH 7.0. It counts as biochemical. The protocol:
as §1, §2, §3

[3] abbreviates: in the absence of an esterase, read-out: β-Lactamase inhibition IC50, P. vulgaris 1028, -E.
[4] abbreviates: in the presence of an esterase, read-out: β-Lactamase inhibition IC50, P. vulgaris 1028, +E.

T1 sequence (P62593 24-286 limits assumed): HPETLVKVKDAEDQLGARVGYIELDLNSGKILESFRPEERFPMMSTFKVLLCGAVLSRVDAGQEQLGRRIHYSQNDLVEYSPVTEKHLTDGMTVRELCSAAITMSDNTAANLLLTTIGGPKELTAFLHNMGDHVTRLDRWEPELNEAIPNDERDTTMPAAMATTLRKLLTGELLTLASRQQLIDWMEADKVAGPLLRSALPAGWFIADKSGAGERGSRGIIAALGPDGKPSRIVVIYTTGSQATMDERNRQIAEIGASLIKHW

For the compound `CC(C=C1C(=O)N2[C@@H]1SC(C)(C)[C@@H]2C(=O)OCOC(=O)C(C)(C)C)=NO` [Example 1, methylene-(2S,5R)-6-[2-(hydroxyimino)propylidene]pencillanate pivalate], the IC50 (commonly the concentration that inhibits the measured activity by half) in test [1] (in the absence of an esterase) was 60 nM; in test [1] (in the presence of an esterase) it was 2 nM; in test [2] (setting [3]), 460 nM; in test [2] (setting [4]), 35 nM.

As for `CC(=O)C[C@]1(N2CCOCC2)C(=O)N2[C@@H](C(=O)OCOC(=O)C(C)(C)C)C(C)(C)S[C@@H]21` [Example 3, methylene-(2S,5R,6S)-6-acetonyl-6-morpholino-penicillanate pivalate], the IC50 in test [1] (in the absence of an esterase) came out at 900 nM; in test [1] (in the presence of an esterase) it was 10 nM; in test [2] (setting [3]), 4100 nM; in test [2] (setting [4]) it was 100 nM.

Consider `CC(=O)C[C@@]1(SC(C)=O)C(=O)N2[C@@H](C(=O)OCOC(=O)C(C)(C)C)C(C)(C)S[C@@H]21` [Example 5, methylene-(2S,5R,6R)-6-acetonyl-6-acetylthio-penicillanate pivalate], for which the IC50 in test [1] (in the absence of an esterase) is 700 nM; in test [1] (in the presence of an esterase), 10 nM; in test [2] (setting [3]), 4200 nM; in test [2] (setting [4]), 200 nM.

For `CC(=O)C[C@]1(Sc2ccccc2)C(=O)N2[C@@H](C(=O)OCOC(=O)C(C)(C)C)C(C)(C)S[C@@H]21` [Example 4, methylene-(2S,5R,6S)-6-acetonyl-6-phenylthio-penicillanate pivalate], the IC50 in test [1] (in the absence of an esterase) was found to be 800 nM; in test [1] (in the presence of an esterase), 2 nM; in test [2] (setting [3]), 3700 nM; in test [2] (setting [4]) it was 300 nM.
